Test results as given in the NIST ThermoML archive (doi:10.1016/j.fluid.2013.12.008).

Experiments:
[1] = xn = mol fraction of the nth substance listed; settings: 101 kPa, Liquid; for viscosity: Falling or rolling sphere viscometry; for mass density: Vibrating tube method
[2] = 101 kPa, Liquid; for viscosity: Falling or rolling sphere viscometry; for mass density: Vibrating tube method

CCn1cc[n+](C)c1.N#C[C-](C#N)C#N [1-ethyl-3-methyl-1H-imidazolium tricyanomethanide] + CCn1cc[n+](C)c1.N#CN=C=[N-]
[1]
Settings	mass density, x1 = 0.2 [kg/m3]	mass density, x1 = 0.4 [kg/m3]	mass density, x1 = 0.6 [kg/m3]	mass density, x1 = 0.8 [kg/m3]	mass density, x1 = 1 [kg/m3]	viscosity, x1 = 0.2 [mPa·s]	viscosity, x1 = 0.4 [mPa·s]	viscosity, x1 = 0.6 [mPa·s]	viscosity, x1 = 0.8 [mPa·s]	viscosity, x1 = 1 [mPa·s]
293.15 K	1099.9	1095.8	1091.9	1088.4	1085.2	17.55	17.59	17.6	17.64	17.72
303.15 K	1093.2	1088.9	1085	1081.4	1078.1	13.05	13.02	13.01	12.89	12.88
313.15 K	1086.5	1082.2	1078.1	1074.5	1071.1	10.12	10.05	10.02	9.89	9.8
323.15 K	1079.9	1075.5	1071.3	1067.6	1064.1	7.92	7.84	7.8	7.77	7.73
333.15 K	1073.4	1068.8	1064.6	1060.8	1057.2	6.26	6.22	6.19	6.15	5.93
343.15 K	1066.9	1062.3	1057.9	1054.1	1050.4	5.23	5.21	5.2	5.1	4.91
353.15 K	1060.5	1055.7	1051.3	1047.4	1043.6	4.44	4.42	4.38	4.32	4.15

CCn1cc[n+](C)c1.N#C[C-](C#N)C#N [1-ethyl-3-methyl-1H-imidazolium tricyanomethanide]
[2]
Settings	mass density [kg/m3]	viscosity [mPa·s]
293.15 K	1085.2	17.72
303.15 K	1078.1	12.88
313.15 K	1071.1	9.8
323.15 K	1064.1	7.73
333.15 K	1057.2	5.93
343.15 K	1050.4	4.91
353.15 K	1043.6	4.15

CCn1cc[n+](C)c1.N#CN=C=[N-] [1-ethyl-3-methylimidazolium dicyanamide] + CCn1cc[n+](C)c1.N#C[C-](C#N)C#N
[1], x2 = 0
Settings	mass density [kg/m3]	viscosity [mPa·s]
293.15 K	1104.6	17.54
303.15 K	1098	13.11
313.15 K	1091.4	10.17
323.15 K	1084.9	8.13
333.15 K	1078.5	6.66
343.15 K	1072.1	5.58
353.15 K	1065.8	4.75

CCn1cc[n+](C)c1.N#CN=C=[N-] [1-ethyl-3-methylimidazolium dicyanamide]
[2]
Settings	mass density [kg/m3]	viscosity [mPa·s]
293.15 K	1104.6	17.54
303.15 K	1098	13.11
313.15 K	1091.4	10.17
323.15 K	1084.9	8.13
333.15 K	1078.5	6.66
343.15 K	1072.1	5.58
353.15 K	1065.8	4.75
